The values below come from patent US12083089B2, “Compositions and methods for stimulating ventilatory and/or respiratory drive” (CASE WESTERN RESERVE UNIVERSITY, priority 2015, dated 2024).

In data set [1] the test system is conscious male adult Sprague-Dawley rats. As to the kind of experiment: Plethysmographic ventilatory responses to test compounds in conscious rats. The data set is classed as in vivo, rat. The conditions noted are these: 500 μmol/kg, i.v., FIG. 2.
The subject of data set [2] is freely moving adult male Sprague-Dawley rats. As to the kind of experiment: Whole-body plethysmography of ventilatory parameters in morphine-treated rats. As for the experimental part:
Permissions, rats, surgical procedures and blinding of protocols. All studies were carried out in accordance with the NIH Guide for the Care and Use of Laboratory Animals (NIH Publication No. […]) revised in 1996. The protocols were approved by the Animal Care and Use Committees of the University of Virginia, Case Western Reserve University and Loma Linda University. In addition, all studies were carried out in compliance with the ARRIVE (Animal Research: Reporting of In Vivo Experiments) guidelines. Adult male Sprague-Dawley rats (Harlan, Madison, WI, USA) were implanted with jugular vein catheters under 2% isoflurane anesthesia and some rats received femoral arterial catheters. The rats were allowed at least four days to recover from surgery before use. All arterial catheters were flushed daily with heparin solution (50 units of heparin in phosphate-buffered saline at 0.1 M, pH 7.4). All catheters were flushed with phosphate-buffered saline (0.1 M, pH 7.4) approximately four hours before commencement of the experiments. All studies were performed in a quiet laboratory with relative humidity of 49±2% and room temperature of 21.4±0.2° C. […] Also, please note that the antinociception and ventilatory studies were done in separate groups of rats so as to not complicate the respiratory measurements. The recording (plethysmography, antinociception) sessions and the arterial blood gas assays were done by a particular investigator who administered the opioid, vehicle or test drug such as d-cystine diME. The syringes containing the vehicle or test drug were made up by another investigator, such that the investigator running the actual experiment was blinded to the treatment protocol. In every case, the data files resulting from a particular study were first collated and analyzed by another investigator in the group.
Ventilatory parameters were recorded in freely moving rats by whole body plethysmography (PLY3223; Data Sciences International, St. Paul, MN). The rats were placed in individual chambers and given 60 min to acclimatize to allow true resting ventilatory parameters to be established. […] The rats received another injection of vehicle or 1-NACme (500 μmol/kg, IV) 15 min later and ventilatory parameters were recorded for a further 60 min.
The provided software (Fine Pointe, BUXCO) constantly corrected digitized values for changes in chamber temperature and humidity. Pressure changes associated with the respiratory waveforms were then converted to volumes (i.e., TV, PIF and PEF) using the algorithm of Epstein and colleagues. Specifically, factoring in chamber temperature and humidity, the cycle analyzers filtered the acquired signals, and BUXCO algorithms (Fine Pointe) generated an array of box flow data that identified a waveform segment as an acceptable breath. From that data vector, the minimum and maximum values were determined. Flows at this point were considered to be “box flow” signals.
The recorded data (1 min bins) and derived parameters, Vt/Ti and Response Area (cumulative percent changes from pre-values) were taken for statistical analyses. The pre-drug 1 min bins excluded occasional marked deviations from resting due to movements or scratching by the rats. These exclusions ensured accurate determinations of baseline parameters. The data are presented as mean±SEM. All data unless other-wise stated (see immediately below) were analyzed by one-way or two-way analysis of variance followed by Student's modified t test with Bonferroni corrections for multiple comparisons between means using the error mean square terms from each ANOVA. A value of P<0.05 denoted the initial level of statistical significance that was modified according to the number of comparisons between means.

Data set [3] deals with freely moving rats. As to the kind of experiment: Arterial blood-gas chemistry and A-a gradient in morphine-treated rats. In kind it is in vivo, rat. The conditions noted are these: for deleterious actions of morphine on ABG chemistry and A-a gradient: bolus 500 μmol/kg i.v. after morphine 10 mg/kg i.v., Example 1; for deleterious effects of morphine on ABG chemistry and A-a gradient after prior infusion: prior infusion 14.3 μmol/kg/min, total 500 μmol/kg i.v. over 35 min, morphine 10 mg/kg i.v.

Another data set relates to conscious rats. As to the kind of experiment: Morphine-induced analgesia (paw withdrawal latency assay), Example 1. In kind it is in vivo, rat. The conditions noted are these: pretreatment 500 μmol/kg i.v.; morphine 5 mg/kg i.v.
A further data set has as its system rats. As to the kind of experiment: Hemodynamics (preliminary toxicology). Particulars: 500 μmol/kg, i.v. The data set is classed as in vivo, rat. The text has this:
FIGS. 11(A-C) illustrate plots showing the effects of test agents (500 μmol/kg, i.v.) on hemodynamic variables. Data are presented mean±SEM (n=8 rats per group).

In data set [4] the test system is freely moving rats. The data set is described as follows: Tail-flick latency (TFL) test. The data set is classed as in vivo, rat.
The test system of data set [5] is adult male rats. The data set is described as follows: Hargreaves Hind-paw Latency Test, morphine 1 mg/kg. In kind it is in vivo, rat. Particulars: for Hargreaves hind-paw withdrawal latency: FIG. 24 study.
Data set [6] has as its system adult male rats. The data set is described as follows: Von Frey Test, morphine 1 mg/kg. Particulars: for force needed to initiate hind-paw withdrawal (Von Frey): FIG. 25 study. In kind it is in vivo, rat.
The mark [7] stands for this setting: two injections of L-NACme 500 μmol/kg IV after morphine 10 mg/kg IV.
The mark [8] stands for this setting: 500 μmol/kg IV with morphine sulfate 1.0 mg/kg IV.
[9] abbreviates: 500 μmol/kg IV, tested 20 to 30 min post-injection.

Marks after values point to notes of the source that are not given here.

With `COC(=O)[C@@H](N)CS` [L-CYSme, L-cysteine methylester], in data set [1], the “total ventilatory responses recorded over the 30 min post-injection period (% baseline), comparison of efficacy” value is given as “as efficacious as L-CYSee”.
On to `COC(=O)[C@H](CS)NC(C)=O` [L-NACme, L-N-acetylcysteine methylester], for which the “total ventilatory responses recorded over the 30 min post-injection period (% baseline), comparison of efficacy” value in data set [1] is reported as “comparatively minor effects”. In addition, the “effects on morphine-induced changes in Freq, TV and MV” value in data set [2] (2×500 μmol/kg, IV, morphine 10 mg/kg) is “only minor effects”. In data set [2] (setting [7]), the “Frequency: Drug - entire 75 min, % change” value was “+11 ± 2 %”; the “Minute Ventilation: Drug - entire 75 min, % change” value was −19 ± 4 %; the “Tidal Volume: Drug - entire 75 min, % change” value was −22 ± 3 %.
For the compound `CCOC(=O)[C@H](N)CS` [D-CYSee, D-Cysteine ethyl ester], the “total ventilatory responses recorded over the 30 min post-injection period (% baseline), comparison of efficacy” value in data set [1] was “more efficacious that L-CYSee/L-CYSme”. Further, the “ventilatory depressant effects of morphine incl. tidal volume/inspiratory time (Vt/Ti)” value in data set [2] (bolus 500 μmol/kg i.v. (D-CYSee 2×500 μmol/kg) after morphine 10 mg/kg i.v., conscious rats, Example 1) is recorded as “sustained reversal”. For the same compound, the “deleterious actions of morphine on ABG chemistry and A-a gradient” value (shortened to “deleterious actions of morphine”) in the data set with freely moving rats [3] is reported as “sustained reversal”. Also, in the data set on conscious rats, the “decay of morphine analgesia” value is “decayed more quickly” and the “initial level of analgesia (paw withdrawal latency) elicited by morphine” value is given as “did not affect”.
For `N[C@H](CS)C(=O)O` [D-cysteine], the “deleterious actions of morphine” value with freely moving rats [3] is “minimal effects”.
Regarding `CCOC(=O)[C@@H](N)CS` [L-CYSee, L-Cysteine ethyl ester], the “peak inspiratory flow and respiratory drive (Vt/Ti) during infusion” value in data set [2] (prior infusion 14.3 μmol/kg/min, total 500 μmol/kg i.v. over 35 min, conscious rats) is recorded as “dramatically increased”. Further, the “subsequent effects of a bolus injection of morphine on ventilation” value in data set [2] (prior infusion total 500 μmol/kg i.v. over 35 min, morphine 10 mg/kg i.v.) is listed as “markedly blunted”. The “effect of a subsequent injection after infusion and morphine” value in data set [2] (subsequent injection 250 μmol/kg/min as printed, morphine 10 mg/kg i.v.) is on record as “prompt beneficial effects”. In the data set on freely moving rats [3], the “deleterious effects of morphine on ABG chemistry and A-a gradient after prior infusion” value is “virtually eliminated”. Further, in the data set on rats, the “cardiac output and heart rate” value is “decreases”; the “hemodynamic responses (FIG. 11)” value is reported as “minimal responses”; the “mean arterial blood pressure (MAP)” value is recorded as “substantial transient decreases”; the total peripheral resistance result is given as “no changes”.
For `N[C@H](CSSC[C@@H](N)C(=O)O)C(=O)O` [D-Cystine, D-cystine], in data set [2] (rat, in vivo), the “Frequency: Drug - entire 75 min, % change” value is “+4.5 ± 3.3%”; the “Frequency: Drug - last 15 min, % change” value is “+14.3 ± 2.8*^,† %”; the “Frequency: Drug maximum, % change” value was −1.2 ± 2.1%; the “Minute Ventilation: Drug - entire 75 min, % change” value is −19 ± 5 %. In data set [2] (rat, in vivo), the “Minute Ventilation: Drug - last 15 min, % change” value was −2 ± 4*^,† %; the “Minute Ventilation: Drug maximum, % change” value is −4.4 ± 2.5%; the “Tidal Volume: Drug - entire 75 min, % change” value was −22 ± 4 %; the “Tidal Volume: Drug - last 15 min, % change” value is −12 ± 2*^,† %. Moreover, in data set [2] (rat, in vivo), the “Tidal Volume: Drug maximum, % change” value is “+3.4 ± 2.2%”; the “immediate effects on Freq, TV or MV” value is given as “did not elicit immediate effects”; the “return of Freq, TV and MV toward pre-morphine levels versus vehicle-treated rats” value is recorded as “returned toward pre-morphine levels more quickly”. Further, the “deleterious actions of morphine” value with freely moving rats [3] is recorded as “minor delayed effects”. In the data set with freely moving rats [3] (freely moving rats, morphine 10 mg/kg IV, then drug 500 μmol/kg IV 15 min later, FIG. 18), the “changes in ABG chemistry (pH, pCO2, pO2 and sO2)” value is “returned toward pre-injection levels faster”. In addition, the “changes in A-a gradient” value in the data set on freely moving rats [3] (freely moving rats, morphine 10 mg/kg IV, then drug 500 μmol/kg IV 15 min later, FIG. 19) is listed as “returned toward pre-injection levels”. For the same compound, in the data set on freely moving rats [4] (10 min-post drug (time −10 min), D-cystine 500 μmol/kg IV alone), the “Tail-Flick latency” value amounted to 3.3 ± 0.4 s. Further, the “Tail-Flick latency” value with freely moving rats [4] (20 min post-drug (time 0), D-cystine 500 μmol/kg IV alone) is 3.2 ± 0.4 s. Also, the “antinociceptive effects of morphine (TFL) in drug-pretreated rats” value in the data set with freely moving rats [4] (drug 500 μmol/kg IV 20 min before morphine 10 mg/kg IV) was “also enhanced”. Further, the “Tail-Flick latency” value in the data set on freely moving rats [4] (post-morphine - 30 min, D-cystine 500 μmol/kg IV pretreated, morphine 10 mg/kg IV) worked out at 12 ± 0.0 s. For the same compound, the “Tail-Flick latency” value in the data set with freely moving rats [4] (post-morphine - 60 min, D-cystine 500 μmol/kg IV pretreated, morphine 10 mg/kg IV) is 12 ± 0.0 s. Besides, in the data set on freely moving rats [4] (post-morphine - 90 min, D-cystine 500 μmol/kg IV pretreated, morphine 10 mg/kg IV), the “Tail-Flick latency” value amounted to 12 ± 0.0 s. Besides, the “Tail-Flick latency (sec)” value with freely moving rats [4] (post-morphine - 120 min, D-cystine 500 μmol/kg IV pretreated, morphine 10 mg/kg IV) is given as 12 ± 0.0*^,† sec. For the same compound, in the data set on freely moving rats [4] (post-morphine - 180 min, D-cystine 500 μmol/kg IV pretreated, morphine 10 mg/kg IV), the “Tail-Flick latency (sec)” value is listed as 10.7 ± 0.3*^,† sec. The “Tail-Flick latency (sec)” value with freely moving rats [4] (post-morphine - 210 min, D-cystine 500 μmol/kg IV pretreated, morphine 10 mg/kg IV) is on record as 7.4 ± 0.3*^,† sec. For the same compound, the “Tail-Flick latency” value in the data set with freely moving rats [4] (post-morphine - 240 min, D-cystine 500 μmol/kg IV pretreated, morphine 10 mg/kg IV) came to 5.0 ± 0.3 s. Also, the “Tail-Flick latency” value with freely moving rats [4] (post-morphine - 360 min, D-cystine 500 μmol/kg IV pretreated, morphine 10 mg/kg IV) came out at 3.5 ± 0.3 s.
Consider `COC(=O)[C@@H](N)CSSC[C@H](N)C(=O)OC` [L-cystine diME], for which the “effect on the antinociception actions of morphine (Hargreaves)” value in the data set with adult male rats [5] (setting [8]) is “neither thiolester affected”. Besides, the “thermal nociception (Hargreaves Testing) when given alone” value in the data set with adult male rats [5] (setting [9]) is listed as “neither d-cystine diME nor L-cystine diME affected”. The “Hargreaves hind-paw withdrawal latency” value with adult male rats [5] (L-cystine diME plus morphine) amounted to 18.5 ± 1.1 s; in the data set with adult male rats [5] (given alone, L-cystine diME 500 μmol/kg IV, morphine sulfate 1 mg/kg IV), 12.0 ± 0.5 s; in the data set on adult male rats [5] (morphine+L-cystine diME), 17.2 ± 0.9 s. The “effect on the antinociception actions of morphine (Von Frey)” value with adult male rats [6] (setting [8]) is on record as “neither thiolester affected”. Further, in the data set on adult male rats [6] (setting [9]), the “mechanical allodynia (Von Frey Testing) when given alone” value is “neither d-cystine diME nor L-cystine diME affected”. Also, the “force needed to initiate hind-paw withdrawal (Von Frey)” value came to 87.3 ± 4.2 g in the data set on adult male rats [6] (L-Cystine diME+morphine); 51.0 ± 7.6 g in the data set on adult male rats [6] (given alone, L-cystine diME 500 μmol/kg IV, morphine 1 mg/kg IV); 86.9 ± 5.2 g in the data set with adult male rats [6] (morphine+L-Cystine diME).
For `CCOC(=O)[C@@H](N)CO` [L-SERee, L-serine ethyl ester], the “total ventilatory responses recorded over the 30 min post-injection period (% baseline), comparison of efficacy” value in data set [1] was “minimally active”. Besides, the “deleterious effects of morphine on ABG chemistry and A-a gradient after prior infusion” value in the data set on freely moving rats [3] is recorded as “without effect”.
